Patent US20220389047A1, “O-GLCNACYLATED PROTEIN-LIKE SUBSTANCE AND FIBROSIS THERAPEUTIC DRUG CONTAINING SAME” (KYUSHU UNIVERSITY, NATIONAL UNIVERSITY CORPORATION, priority 2019, published 2022)

Tests used:
NHDF GDF15 = test: Western blotting of GDF15 expression in NHDF; format: cell-based, human; settings: 50 μg/mL, 24 hours, versus control with nothing added
Experimental: 50 μg/mL of the O-GlcNAcylated protein-like substance, the AC-GlcNAc monomer, or N-acetylglucosamine (GlcNAc) prepared in Polymerization Examples 1 to 5 was added to NHDF, and incubation was performed for 24 hours. After the incubation, the expression of NHDF GDF15 was examined by Western blotting. Furthermore, the control was one to which nothing was added.
Furthermore, 10 μg/mL, 50 μg/mL, and 100 μg/mL of the O-GlcNAcylated protein-like substances (AC-GlcNAc10, mass-average molecular weight: 4,000, number-average molecular weight: 3,100) prepared in Polymerization Example 1 were each added to NHDF, and incubation was performed for 24 hours. After the incubation, the expression of NHDF GDF15 was observed by Western blotting. Furthermore, the control was one to which nothing was added.

NHDF = test: Chemotaxis of NHDF under agarose gel containing the substance; format: cell-based, human; settings: FIG. 10, comparison of polymer, monomer, GlcNAc and PBS
Experimental: Using AC-GlcNAc (10-mer) as an O-GlcNAcylated protein-like substance, 250 μg/mL AC-GlcNAc (10-mer) was mixed with an agarose gel to prepare an O-GlcNAcylated protein-like substance-containing agarose gel. In addition, a PBS-containing agarose gel was prepared using PBS instead of the O-GlcNAcylated protein-like substance. A glass plate was placed in a petri dish, each agarose gel was added dropwise onto the glass plate, NHDF was further seeded on the entire glass plate, and incubation was performed for one day.
Next, agarose gels having blending amounts of 50 μg/mL, 100 μg/mL, and 250 μg/mL of the O-GlcNAcylated protein-like substance were prepared, and the chemotaxis of NHDF was evaluated in the same manner as above. […]
Next, the chemotaxis of NHDF by an O-GlcNAcylated protein-like substance was evaluated. The materials used were the O-GlcNAcylated protein-like substance prepared in Polymerization Example 1, the AC-GlcNAc monomer prepared in Polymerization Example 5, and N-acetylglucosamine (GlcNAc) and PBS used in Example 2, and the chemotaxis of NHDF was evaluated in the same manner as above. […]
Next, it was evaluated by the same method as above whether or not there was a difference in the chemotaxis of NHDF due to the difference in the degree of polymerization of the O-GlcNAcylated protein-like substance. […]

SMILES	expression of GDF15 (Western blotting) (NHDF GDF15)	invasion of cells under the agarose gel (NHDF)
CC(=O)N[C@H]1C(O)O[C@H](CO)[C@@H](O)[C@@H]1O (stereo partly shown) [GlcNAc, N-acetylglucosamine]	almost the same effect as the control	cells invaded under the agarose gel only with the O-GlcNAcylated protein-like substance of Polymerization Example 1
C=CC(=O)OCCC(=O)NC1OC(CO)[C@@H](O)C(O)C1NC(C)=O (stereo partly shown) [AC-GlcNAc monomer]	almost the same effect as the control	cells invaded under the agarose gel only with the O-GlcNAcylated protein-like substance of Polymerization Example 1
